target: MCH receptor (Homo sapiens, UniProt Q99705); test: High throughput functional screening FLIPR/FDSS6000: inhibition of MCH-evoked intracellular Ca2+ changes; type: cell-based; settings: class by percent of control at 10^-7 M or IC50
Procedure, shortened: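 In a kinetic calcium-flux format, compounds were tested at various concentrations against 50 nM MCH. Fluo4-loaded cells expressing a constitutively active, non-endogenous receptor were imaged at 488/530 nm for 290 s after agonist addition.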

| Compound | class |
| --- | --- |
| CN(C)c1nc(N[C@H]2CC[C@@H](NC(=S)NCCN3CCOCC3)CC2)nc2ccccc12 [compound 388] | 3 (Class 3: The value of percent of control at 10^−7 M was more than 60% or the value of IC50 was more than 200 nM.) |
| C[C@@H](NC(=S)N[C@H]1CC[C@@H](Nc2nc(N(C)C)c3ccccc3n2)CC1)c1ccccc1 [compound 329, N-(cis-4-{[4-(dimethylamino)quinazolin-2-yl]amino}cyclohexyl)-N′-[(1R)-1-phenylethyl]thiourea] | 1 (Class 1: The value of percent of control at 10^−7 M was less than 40% or the value of IC50 was less than 50 nM.) |
| CN(C)c1nc(N[C@H]2CC[C@@H](CNC(=O)Nc3ccc4c(c3)CCC4)CC2)nc2ccccc12 [compound 568] | 3 (Class 3: The value of percent of control at 10^−7 M was more than 60% or the value of IC50 was more than 200 nM.) |
| CN(C)c1nc(N[C@H]2CC[C@@H](NC(=O)Nc3ccc(-c4ccccc4)s3)CC2)nc2ccccc12 [compound 348] | 3 (Class 3: The value of percent of control at 10^−7 M was more than 60% or the value of IC50 was more than 200 nM.) |
| CN(C)c1nc(N[C@H]2CC[C@@H](NC(=S)Nc3cc(F)ccc3Br)CC2)nc2ccccc12 [compound 364] | 2 (Class 2: The value of percent of control at 10^−7 M was from 40% to 60% or the value of IC50 was from 50 nM to 200 nM.) |
| CN(C)c1nc(N[C@H]2CC[C@@H](CNC(=O)Nc3ccc(Cl)cc3)CC2)nc2ccccc12 [compound 416] | 3 (Class 3: The value of percent of control at 10^−7 M was more than 60% or the value of IC50 was more than 200 nM.) |
| CN(C)c1nc(N[C@H]2CC[C@@H](CNC(=O)Nc3ccc(Br)cc3)CC2)nc2ccccc12 [compound 413] | 3 (Class 3: The value of percent of control at 10^−7 M was more than 60% or the value of IC50 was more than 200 nM.) |
| CN(C)c1nc(N[C@H]2CC[C@@H](CNC(=S)Nc3c(F)c(F)c(F)c(F)c3F)CC2)nc2ccccc12 [compound 616, N-[(cis-4-{[4-(dimethylamino)quinazolin-2-yl]amino}cyclohexyl)methyl]-N′-(pentafluorophenyl)thiourea] | 2 (Class 2: The value of percent of control at 10^−7 M was from 40% to 60% or the value of IC50 was from 50 nM to 200 nM.) |
| CN(C)c1nc(N[C@H]2CC[C@@H](CNC(=S)Nc3ccccc3I)CC2)nc2ccccc12 [compound 643] | 3 (Class 3: The value of percent of control at 10^−7 M was more than 60% or the value of IC50 was more than 200 nM.) |
| CN(C)c1nc(N[C@H]2CC[C@@H](CNC(=O)Nc3ccc(F)cc3)CC2)nc2ccccc12 [compound 437, N-[(cis-4-{[4-(dimethylamino)quinazolin-2-yl]amino}cyclohexyl)methyl]-N′-(4-fluorophenyl)urea] | 1 (Class 1: The value of percent of control at 10^−7 M was less than 40% or the value of IC50 was less than 50 nM.) |
| CN(C)c1nc(N[C@H]2CC[C@@H](CNC(=O)Nc3cccc(SC(F)(F)F)c3)CC2)nc2ccccc12 [compound 518] | 3 (Class 3: The value of percent of control at 10^−7 M was more than 60% or the value of IC50 was more than 200 nM.) |
| CCc1cccc(NC(=S)NC[C@H]2CC[C@@H](Nc3nc(N(C)C)c4ccccc4n3)CC2)c1 [compound 731] | 3 (Class 3: The value of percent of control at 10^−7 M was more than 60% or the value of IC50 was more than 200 nM.) |
| CCc1cccc(CC)c1NC(=S)NC[C@H]1CC[C@@H](Nc2nc(N(C)C)c3ccccc3n2)CC1 [compound 674, N-(2,6-diethylphenyl)-N′-[(cis-4-{[4-(dimethylamino)quinazolin-2-yl]amino}cyclohexyl)methyl]thiourea] | 1 (Class 1: The value of percent of control at 10^−7 M was less than 40% or the value of IC50 was less than 50 nM.) |
| CCCCc1ccc(NC(=O)NC[C@H]2CC[C@@H](Nc3nc(N(C)C)c4ccccc4n3)CC2)cc1 [compound 561] | 3 (Class 3: The value of percent of control at 10^−7 M was more than 60% or the value of IC50 was more than 200 nM.) |
| CN(C)c1nc(N[C@H]2CC[C@@H](CNC(=S)NCc3cccc(Cl)c3)CC2)nc2ccccc12 [compound 729] | 3 (Class 3: The value of percent of control at 10^−7 M was more than 60% or the value of IC50 was more than 200 nM.) |
| COc1cccc(CNC(=S)NC[C@H]2CC[C@@H](Nc3nc(N(C)C)c4ccccc4n3)CC2)c1OC [compound 716] | 2 (Class 2: The value of percent of control at 10^−7 M was from 40% to 60% or the value of IC50 was from 50 nM to 200 nM.) |
| CN(C)c1nc(N[C@H]2CC[C@@H](CNC(=S)Nc3ccccc3OC(F)F)CC2)nc2ccccc12 [compound 639] | 3 (Class 3: The value of percent of control at 10^−7 M was more than 60% or the value of IC50 was more than 200 nM.) |
| COc1ccc(NC(=O)NC[C@H]2CC[C@@H](Nc3nc(N(C)C)c4ccccc4n3)CC2)cc1 [compound 444, N-[(cis-4-{[4-(dimethylamino)quinazolin-2-yl]amino}cyclohexyl)methyl]-N′-(4-methoxyphenyl)urea] | 2 (Class 2: The value of percent of control at 10^−7 M was from 40% to 60% or the value of IC50 was from 50 nM to 200 nM.) |
| CCCCOC(=O)c1ccc(NC(=O)NC[C@H]2CC[C@@H](Nc3nc(N(C)C)c4ccccc4n3)CC2)cc1 [compound 535] | 3 (Class 3: The value of percent of control at 10^−7 M was more than 60% or the value of IC50 was more than 200 nM.) |
| Cc1ccccc1CNC(=S)N[C@H]1CC[C@@H](Nc2nc(N(C)C)c3ccccc3n2)CC1 [compound 303, N-(cis-4-{[4-(dimethylamino)quinazolin-2-yl]amino}cyclohexyl)-N′-(2-methylbenzyl)thiourea] | 2 (Class 2: The value of percent of control at 10^−7 M was from 40% to 60% or the value of IC50 was from 50 nM to 200 nM.) |
| CN(C)c1nc(N[C@H]2CC[C@@H](CNC(=O)Nc3ccc(Cl)c(C(F)(F)F)c3)CC2)nc2ccccc12 [compound 548] | 3 (Class 3: The value of percent of control at 10^−7 M was more than 60% or the value of IC50 was more than 200 nM.) |

same assay, conditions: class by percent of control at 10^-7 M or by IC50; read-out: class

| IC50 [µM] | Compound |
| --- | --- |
| < 0.05 | CN(C)c1nc(N[C@H]2CC[C@@H](NC(=O)NCc3ccc(Cl)cc3Cl)CC2)nc2ccccc12 [compound 78, N-(2,4-dichlorobenzyl)-N′-(cis-4-{[4-(dimethylamino)quinazolin-2-yl]amino}cyclohexyl)urea] |
| > 0.2 | CC(C)c1ccc(NC(=O)N[C@H]2CC[C@@H](Nc3nc(N(C)C)c4ccccc4n3)CC2)cc1 [compound 39] |
| < 0.05 | CN(C)c1nc(N[C@H]2CC[C@@H](NC(=O)Nc3c(Br)cc(Br)cc3Br)CC2)nc2ccccc12 [compound 75, N-(cis-4-{[4-(dimethylamino)quinazolin-2-yl]amino}cyclohexyl)-N′-(2,4,6-tribromophenyl)urea] |
| < 0.05 | Cc1cccc(C(C)(C)C)c1NC(=O)N[C@H]1CC[C@@H](Nc2nc(N(C)C)c3ccccc3n2)CC1 [compound 116, N-(2-tert-butyl-6-methylphenyl)-N′-(cis-4-{[4-(dimethylamino)quinazolin-2-yl]amino}cyclohexyl)urea] |
| < 0.05 | CCc1cccc(C(C)C)c1NC(=S)N[C@H]1CC[C@@H](Nc2nc(N(C)C)c3ccccc3n2)CC1 [compound 173, N-(cis-4-{[4-(dimethylamino)quinazolin-2-yl]amino}cyclohexyl)-N′-(2-ethyl-6-isoprophylphenyl)thiourea] |
| > 0.2 | CN(C)c1nc(N[C@H]2CC[C@@H](NC(=S)Nc3cc(C(F)(F)F)cc(C(F)(F)F)c3)CC2)nc2ccccc12 [compound 155] |
| > 0.2 | CN(C)c1nc(N[C@H]2CC[C@@H](CNC(=S)Nc3cccc4nsnc34)CC2)nc2ccccc12 [compound 815] |
| < 0.05 | CSc1ccc(NC(=O)N[C@H]2CC[C@@H](Nc3nc(N(C)C)c4ccccc4n3)CC2)cc1 [compound 47, N-(cis-4-{[4-(dimethylamino)quinazolin-2-yl]amino}cyclohexyl)-N′-[4-(methylthio)phenyl]urea] |

same assay, conditions: class by percent of control at 10^−7 M or by IC50; read-out: class

| IC50 [µM] | Compound |
| --- | --- |
| > 0.2 | CN(C)c1nc(N[C@H]2CC[C@@H](NC(=O)c3ccc(Oc4ccc(Br)cc4)nc3)CC2)nc2ccccc12 [Example 1061, 6-(4-bromophenoxy)-N-(cis-4-{[4-(dimethylamino)quinazolin-2-yl]amino}cyclohexyl)nicotinamide] |
| > 0.2 | CN(C)c1nc(N[C@H]2CC[C@@H](NCc3ccc(OC(F)(F)F)cc3)C2)nc2ccccc12 [Example 1047, N4,N4-dimethyl-N2-((1S,3R)-3-{[4-(trifluoromethoxy)benzyl]-amino}cyclopentyl)quinazoline-2,4-diamine] |
| < 0.05 | COc1ccc(C(O)C(=O)N[C@H]2CC[C@@H](Nc3nc(N(C)C)c4ccccc4n3)CC2)cc1 (relative stereo) [Example 1105, N-(cis-4-{[4-(dimethylamino)quinazolin-2-yl]amino}cyclohexyl)-2-hydroxy-2-(4-methoxyphenyl)acetamide] |
| < 0.05 | CN(C)c1nc(N[C@H]2CC[C@@H](NC(=O)c3cccnc3Oc3ccccc3Br)CC2)nc2ccccc12 [Example 1032, 2-(2-bromophenoxy)-N-(cis-4-{[4-(dimethylamino)quinazolin-2-yl]amino}cyclohexyl)nicotinamide] |
| 0.05 to 0.2 | CN(C)c1nc(N[C@H]2CC[C@@H](C(=O)NCc3ccccc3)CC2)nc2cc(F)c(F)cc12 [Example 992, cis-N-benzyl-4-{[4-(dimethylamino)-6,7-difluoroquinazolin-2-yl]amino}cyclohexanecarboxamide] |
| < 0.05 | COc1cccc(Oc2ccc(C(=O)N[C@H]3CC[C@@H](Nc4nc(N(C)C)c5ccccc5n4)CC3)cn2)c1OC [Example 1066, 6-(2,3-dimethoxyphenoxy)-N-(cis-4-{[4-(dimethylamino)quinazolin-2-yl]amino}cyclohexyl)nicotinamide] |
| < 0.05 | CN(C)c1nc(N[C@H]2CC[C@@H](C(=O)NCc3cccc4ccccc34)CC2)nc2ccccc12 [Example 1154] |

Reference: patent publication US20070010671A1, “Novel quinazoline derivatives and methods of treatment related to the use thereof” (priority 2003, published 2007)
